# Laboratory results as given in ChEMBL document CHEMBL5113462, “Synthesis and evaluation of inhibitors of Mycobacterium tuberculosis UGM using bioisosteric replacement” (Bioorg Med Chem, 2022).
# System: Mycobacterium tuberculosis variant bovis
# Test: Antimycobacterial activity against Mycobacterium tuberculosis variant bovis BCG for 7 days by resazurin-based microdilution assay
# Assay type: functional
# Details: 168 h, time 7 day
row,SMILES,MIC
1,O=C(/C=C/c1ccccc1)N[C@@H](Cc1ccccc1)C(=O)O,> 400 µg/mL
2,O=C(/C=C/c1ccccc1)N[C@@H](Cc1ccc(Cl)cc1)C(=O)O,606 µM
3,O=C(/C=C/c1ccccc1)N[C@@H](Cc1ccc(Br)cc1)C(=O)O,1070 µM
4,O=C(/C=C/c1ccccc1)N[C@@H](Cc1ccc(I)cc1)C(=O)O,237 µM
5,O=C(/C=C/c1ccccc1)N[C@@H](Cc1ccc([N+](=O)[O-])cc1)C(=O)O,1270 µM
6,CC[C@@H](CO)NCCN[C@@H](CC)CO [ETHAMBUTOL],4.9 µM
